Data set [1] can be described thus: Solubility in MQ. The data set is classed as physicochemical. The note with it: MQ (water).
For data set [2] the following is noted: cited from earlier work.
Data set [3] relates to cortical collecting duct (CCD). The note with it: identified in the literature; cited from earlier work.
The conditions of data set [4]: human, in vivo; cited from earlier work.
The target of data set [5] is megalin (mouse) (UniProt A2ARV4). Put plainly: confocal immunohistochemistry of mouse kidney sections 24 h after i.v. injection; colocalization of Cy7 micelle signal with anti-megalin Alexa Fluor 488 signal (ImageJ coloc2).
For data set [6] the following is noted: human, in vivo, cited from earlier work.
Data set [7] in a line: Kidney health in PKD mice (i-Stat Chem-8+). It counts as in vivo, Pkd1fl/fl; Pax8 rtTA; Tet-O-Cre mice. The note with it: day of harvest. As for the experimental part:
Serum components, electrolytes, and kidney health markers including sodium (Na), potassium (K), chloride (Cl), ionized calcium (iCa), total carbon dioxide (tCO2), glucose (Glu), blood urea nitrogen (BUN)/Urea, creatinine (Crea), hematocrit (Hct), hemoglobin (Hb), and anion gap (AnGap) were assessed in diseased Pkd1fl/fl; Pax8 rtTA; Tet-OCre mice. 90 μL of blood taken from the submandibular vein on the day of harvest was analyzed using Chem-8+ cartridges for the i-Stat Handheld Blood Analyzer (Abbott, Chicago, IL, USA).

The test system of data set [8] is epithelial sodium channel (ENaC). The data set is described as follows: ENaC current measurement in mpkCCDc14 monolayers. The data set is classed as cell-based, Mouse. The note with it: after 48 h, mpkCCDc14 cells, 300 μM met. As for the experimental part: To validate the therapeutic efficacy of met on the reduction of ENAC current, TER and potential difference (PD) measurements were made on mpkCCDc14 cells seeded on Transwell filters as described above. ENaC-dependent equivalent short-circuit currents (leq) was estimated by Ohm's law, dividing the measured PD by the TER value and the area of one Transwell membrane (0.33 cm2). mpkCCDc14 cell cultures were treated with 100 μL CS-NP met (300 μM met), CS-NP, or PBS at pH 7.4.

Data set [9] relates to AMPK. Put plainly: Transwell intestinal cell model, pAMPK/AMPK ELISA of basolateral mpkCCDc14. It counts as cell-based. Conditions: 300 μM, up to 48 h, across Caco2 monolayer on transwell insert. From the text: FIG. 17A provides a transwell schematic of mpkCCDc14 cell monolayers, with a Caco2 cell monolayer seeded on the transwell insert. […] Chitosan Disrupts Intestinal Tight Junctions.

The subject of data set [10] is Caco-2 cell monolayers. The data set is described as follows: Transepithelial resistance (TER) surveillance. The data set is classed as cell-based, Human. The note with it: up to 3 days after administration. As for the experimental part: For transport and monolayer resistance experiments, Caco-2 cell monolayers were seeded onto Transwell inserts (Corning, NY, USA; diameter 6.5 mm, growth area 0.33 cm^2, pore size 0.4 μm), at an initial density of 3×10^5 cell/cm2 and maintained for 21 days in complete medium to form a confluent monolayer. The change of TER, representing the tightness of the cell monolayers, was measured by an EVOM2 Epithelial Voltohmmeter (World Precision Instruments, USA). Monolayers reaching steady-state values in the range of 300-400 Ω-cm^2 were used for studies.
Additionally, the effect of paracellular transport through tight junctions was monitored via TER of Caco-2 cells seeded on Transwell inserts. TER measurements were performed daily for three days prior to treatment with CS-NP R, free Rhodamine (free R), or PBS control to establish baseline measurements. TER was monitored every 6 h, then again on day 2 and 3 post-administration.

A short description of data set [11]: Histology and intestinal localization after oral gavage. The data set is classed as in vivo, C57BL/6 J mice. The note with it: 24 h after oral gavage.
From the text: Following ex vivo imaging, the brain, heart, lungs, liver, kidneys, spleen, intestines, and bladder were immediately frozen and embedded in OCT (Tissue Tek, Sakura Finetek, Torrance, CA, USA). 10 μm sections were obtained (CM3050 S Cryostat, Leica, Nussloch, Germany) and placed on Superfrost Plus slides (Fisherbrand, Waltham, MA, USA). Tissue sections were stained with hematoxylin & eosin (H&E) and imaged (Leica DMi8, Leica, Wetzlar, Germany, N=3). For staining of intestinal mucin, tissue sample were processed with an alcian blue 1%, pH 2.5 stain kit (Newcomer Supply, Middleton, WI, USA). Briefly, tissue sections on slides were washed in acetic acid for 3 min, incubated in alcian blue for 30 min at 4° C. in a humidified chamber, and counterstained with Nuclear Fast Red (Vector Laboratories, Burlingame, CA, USA). Samples were mounted using VectaMount™ (Vector Laboratories, Burlingame, CA, USA).
Data set [12] is described as follows: Ex vivo imaging of orally administered CS-NP. It counts as in vivo, C57BL/6 J mice. The note with it: oral gavage 10 mg/kg rhodamine. The method, then: To assess the biodistribution of CS-NP semi-quantitatively, 6-7 week old male and female C57BL/6 J mice (Jackson Laboratories, Bar Harbor, ME, USA) were orally gavaged with 10 mg/kg of rhodamine loaded in 200 μL of 500 μM CS-NP R, 10 mg/kg of free R, or PBS control. Mice were euthanized after 3, 24, or 48 h […] and organs (e.g., brain, heart, lungs, liver, kidneys, spleen, intestines, and bladder) were excised and imaged ex vivo on an AMI HTX in vivo imaging system (Spectral Instruments Imaging, Tucson, AZ, USA). The fluorescence signal was quantified via Aura software (Spectral Instruments Imaging, Tucson, AZ, USA, N ≥4), and the background was subtracted from the PBS treated group. The mean radiance (photons/s/cm2/sr) for each organ was quantified as a region of interest, and % of total organ fluorescence was obtained by dividing each organ by the sum of all the organ regions. Urine and blood samples were collected following organ harvest and stored at −20° C. until further analysis. All animal procedures followed NIH guidelines for the care and use of laboratory animals and were approved by the University of Southern California's Institutional Animal Care and Use Committee.

The subject of data set [13] is Caco-2 cells. Put plainly: Cellular uptake and transport of CS-NP with pathway inhibitors. The data set is classed as in vitro ADME, Human. Conditions: same conditions as CS-NP R. The method, then:
To assess the cellular uptake pathways of chitosan nanoparticles, Caco-2 cells were pretreated with medium containing colchicine (transcytosis inhibitor, 10 μM, for 60 min) or wortmannin (macropinocytosis inhibitor, 0.06 mM, for 3 h) before 100 μL of 100 μM rhodamine-loaded chitosan nanoparticles (CS-NP R) was administered in the apical chamber. The amount of rhodamine fluorescence was measured in the basolateral chamber over the course of 4 h.

A short description of data set [14]: Serum fluorescence and absolute bioavailability after oral gavage. The data set is classed as in vivo, C57BL/6 J mice. The note with it: oral gavage 10 mg/kg rhodamine, relative to IV. As for the experimental part:
Blood draws were performed either retro-orbitally or via tail vein at 30 min, 3, 6, 12, 24, 36, and 48 h post-administration. Fluorescence was measured in serum and quantified using a rhodamine calibration curve developed in mouse serum.

A short description of data set [15]: Encapsulation study of everolimus or rapamycin in micelles. The data set is classed as physicochemical. As for the experimental part: Micelles were assembled by dissolving DSPE-PEG(2000)-methoxy in methanol at 100 μM with either everolimus or rapamycin at different lipid:drug molar ratios (2:1, 5:1, 10:1, 20:1), mixing the components, and evaporating the organic solvent under nitrogen. The resulting film was dried under vacuum over night, and then hydrated at 80° C. for 30 min in water and allowed to cool to room temperature overnight before DLS and TEM analysis. DLS measurements were determined at 90° and 637 nm using a Malvern Zetasizer. Free drug was separated by syringe filtering micelles using PTFE syringe filter, pore size 0.1 μm. To calculate encapsulation efficiency and drug loading, micelles were disrupted using DMSO and encapsulated drug was quantified by reading absorbance at 278 nm in a UV Greiner 96-well plate.

Where [16] appears, read: DSPE-PEG(2000)-methoxy:drug molar ratio 2:1.

The text below walks through data of patent US20240197643A1, “ORAL DELIVERY OF NANOPARTICLES FOR KIDNEY DISEASE” (UNIVERSITY OF SOUTHERN CALIFORNIA, priority 2020, published 2024).

The solubility is how much of the substance goes into solution per volume. Lower therefore signals a poorly soluble substance.

≈ marks a conversion by molar mass, not a printed value. Like-named read-outs stand apart in the source and are kept apart here.

Sequence of megalin (mouse) (A2ARV4 26-4660): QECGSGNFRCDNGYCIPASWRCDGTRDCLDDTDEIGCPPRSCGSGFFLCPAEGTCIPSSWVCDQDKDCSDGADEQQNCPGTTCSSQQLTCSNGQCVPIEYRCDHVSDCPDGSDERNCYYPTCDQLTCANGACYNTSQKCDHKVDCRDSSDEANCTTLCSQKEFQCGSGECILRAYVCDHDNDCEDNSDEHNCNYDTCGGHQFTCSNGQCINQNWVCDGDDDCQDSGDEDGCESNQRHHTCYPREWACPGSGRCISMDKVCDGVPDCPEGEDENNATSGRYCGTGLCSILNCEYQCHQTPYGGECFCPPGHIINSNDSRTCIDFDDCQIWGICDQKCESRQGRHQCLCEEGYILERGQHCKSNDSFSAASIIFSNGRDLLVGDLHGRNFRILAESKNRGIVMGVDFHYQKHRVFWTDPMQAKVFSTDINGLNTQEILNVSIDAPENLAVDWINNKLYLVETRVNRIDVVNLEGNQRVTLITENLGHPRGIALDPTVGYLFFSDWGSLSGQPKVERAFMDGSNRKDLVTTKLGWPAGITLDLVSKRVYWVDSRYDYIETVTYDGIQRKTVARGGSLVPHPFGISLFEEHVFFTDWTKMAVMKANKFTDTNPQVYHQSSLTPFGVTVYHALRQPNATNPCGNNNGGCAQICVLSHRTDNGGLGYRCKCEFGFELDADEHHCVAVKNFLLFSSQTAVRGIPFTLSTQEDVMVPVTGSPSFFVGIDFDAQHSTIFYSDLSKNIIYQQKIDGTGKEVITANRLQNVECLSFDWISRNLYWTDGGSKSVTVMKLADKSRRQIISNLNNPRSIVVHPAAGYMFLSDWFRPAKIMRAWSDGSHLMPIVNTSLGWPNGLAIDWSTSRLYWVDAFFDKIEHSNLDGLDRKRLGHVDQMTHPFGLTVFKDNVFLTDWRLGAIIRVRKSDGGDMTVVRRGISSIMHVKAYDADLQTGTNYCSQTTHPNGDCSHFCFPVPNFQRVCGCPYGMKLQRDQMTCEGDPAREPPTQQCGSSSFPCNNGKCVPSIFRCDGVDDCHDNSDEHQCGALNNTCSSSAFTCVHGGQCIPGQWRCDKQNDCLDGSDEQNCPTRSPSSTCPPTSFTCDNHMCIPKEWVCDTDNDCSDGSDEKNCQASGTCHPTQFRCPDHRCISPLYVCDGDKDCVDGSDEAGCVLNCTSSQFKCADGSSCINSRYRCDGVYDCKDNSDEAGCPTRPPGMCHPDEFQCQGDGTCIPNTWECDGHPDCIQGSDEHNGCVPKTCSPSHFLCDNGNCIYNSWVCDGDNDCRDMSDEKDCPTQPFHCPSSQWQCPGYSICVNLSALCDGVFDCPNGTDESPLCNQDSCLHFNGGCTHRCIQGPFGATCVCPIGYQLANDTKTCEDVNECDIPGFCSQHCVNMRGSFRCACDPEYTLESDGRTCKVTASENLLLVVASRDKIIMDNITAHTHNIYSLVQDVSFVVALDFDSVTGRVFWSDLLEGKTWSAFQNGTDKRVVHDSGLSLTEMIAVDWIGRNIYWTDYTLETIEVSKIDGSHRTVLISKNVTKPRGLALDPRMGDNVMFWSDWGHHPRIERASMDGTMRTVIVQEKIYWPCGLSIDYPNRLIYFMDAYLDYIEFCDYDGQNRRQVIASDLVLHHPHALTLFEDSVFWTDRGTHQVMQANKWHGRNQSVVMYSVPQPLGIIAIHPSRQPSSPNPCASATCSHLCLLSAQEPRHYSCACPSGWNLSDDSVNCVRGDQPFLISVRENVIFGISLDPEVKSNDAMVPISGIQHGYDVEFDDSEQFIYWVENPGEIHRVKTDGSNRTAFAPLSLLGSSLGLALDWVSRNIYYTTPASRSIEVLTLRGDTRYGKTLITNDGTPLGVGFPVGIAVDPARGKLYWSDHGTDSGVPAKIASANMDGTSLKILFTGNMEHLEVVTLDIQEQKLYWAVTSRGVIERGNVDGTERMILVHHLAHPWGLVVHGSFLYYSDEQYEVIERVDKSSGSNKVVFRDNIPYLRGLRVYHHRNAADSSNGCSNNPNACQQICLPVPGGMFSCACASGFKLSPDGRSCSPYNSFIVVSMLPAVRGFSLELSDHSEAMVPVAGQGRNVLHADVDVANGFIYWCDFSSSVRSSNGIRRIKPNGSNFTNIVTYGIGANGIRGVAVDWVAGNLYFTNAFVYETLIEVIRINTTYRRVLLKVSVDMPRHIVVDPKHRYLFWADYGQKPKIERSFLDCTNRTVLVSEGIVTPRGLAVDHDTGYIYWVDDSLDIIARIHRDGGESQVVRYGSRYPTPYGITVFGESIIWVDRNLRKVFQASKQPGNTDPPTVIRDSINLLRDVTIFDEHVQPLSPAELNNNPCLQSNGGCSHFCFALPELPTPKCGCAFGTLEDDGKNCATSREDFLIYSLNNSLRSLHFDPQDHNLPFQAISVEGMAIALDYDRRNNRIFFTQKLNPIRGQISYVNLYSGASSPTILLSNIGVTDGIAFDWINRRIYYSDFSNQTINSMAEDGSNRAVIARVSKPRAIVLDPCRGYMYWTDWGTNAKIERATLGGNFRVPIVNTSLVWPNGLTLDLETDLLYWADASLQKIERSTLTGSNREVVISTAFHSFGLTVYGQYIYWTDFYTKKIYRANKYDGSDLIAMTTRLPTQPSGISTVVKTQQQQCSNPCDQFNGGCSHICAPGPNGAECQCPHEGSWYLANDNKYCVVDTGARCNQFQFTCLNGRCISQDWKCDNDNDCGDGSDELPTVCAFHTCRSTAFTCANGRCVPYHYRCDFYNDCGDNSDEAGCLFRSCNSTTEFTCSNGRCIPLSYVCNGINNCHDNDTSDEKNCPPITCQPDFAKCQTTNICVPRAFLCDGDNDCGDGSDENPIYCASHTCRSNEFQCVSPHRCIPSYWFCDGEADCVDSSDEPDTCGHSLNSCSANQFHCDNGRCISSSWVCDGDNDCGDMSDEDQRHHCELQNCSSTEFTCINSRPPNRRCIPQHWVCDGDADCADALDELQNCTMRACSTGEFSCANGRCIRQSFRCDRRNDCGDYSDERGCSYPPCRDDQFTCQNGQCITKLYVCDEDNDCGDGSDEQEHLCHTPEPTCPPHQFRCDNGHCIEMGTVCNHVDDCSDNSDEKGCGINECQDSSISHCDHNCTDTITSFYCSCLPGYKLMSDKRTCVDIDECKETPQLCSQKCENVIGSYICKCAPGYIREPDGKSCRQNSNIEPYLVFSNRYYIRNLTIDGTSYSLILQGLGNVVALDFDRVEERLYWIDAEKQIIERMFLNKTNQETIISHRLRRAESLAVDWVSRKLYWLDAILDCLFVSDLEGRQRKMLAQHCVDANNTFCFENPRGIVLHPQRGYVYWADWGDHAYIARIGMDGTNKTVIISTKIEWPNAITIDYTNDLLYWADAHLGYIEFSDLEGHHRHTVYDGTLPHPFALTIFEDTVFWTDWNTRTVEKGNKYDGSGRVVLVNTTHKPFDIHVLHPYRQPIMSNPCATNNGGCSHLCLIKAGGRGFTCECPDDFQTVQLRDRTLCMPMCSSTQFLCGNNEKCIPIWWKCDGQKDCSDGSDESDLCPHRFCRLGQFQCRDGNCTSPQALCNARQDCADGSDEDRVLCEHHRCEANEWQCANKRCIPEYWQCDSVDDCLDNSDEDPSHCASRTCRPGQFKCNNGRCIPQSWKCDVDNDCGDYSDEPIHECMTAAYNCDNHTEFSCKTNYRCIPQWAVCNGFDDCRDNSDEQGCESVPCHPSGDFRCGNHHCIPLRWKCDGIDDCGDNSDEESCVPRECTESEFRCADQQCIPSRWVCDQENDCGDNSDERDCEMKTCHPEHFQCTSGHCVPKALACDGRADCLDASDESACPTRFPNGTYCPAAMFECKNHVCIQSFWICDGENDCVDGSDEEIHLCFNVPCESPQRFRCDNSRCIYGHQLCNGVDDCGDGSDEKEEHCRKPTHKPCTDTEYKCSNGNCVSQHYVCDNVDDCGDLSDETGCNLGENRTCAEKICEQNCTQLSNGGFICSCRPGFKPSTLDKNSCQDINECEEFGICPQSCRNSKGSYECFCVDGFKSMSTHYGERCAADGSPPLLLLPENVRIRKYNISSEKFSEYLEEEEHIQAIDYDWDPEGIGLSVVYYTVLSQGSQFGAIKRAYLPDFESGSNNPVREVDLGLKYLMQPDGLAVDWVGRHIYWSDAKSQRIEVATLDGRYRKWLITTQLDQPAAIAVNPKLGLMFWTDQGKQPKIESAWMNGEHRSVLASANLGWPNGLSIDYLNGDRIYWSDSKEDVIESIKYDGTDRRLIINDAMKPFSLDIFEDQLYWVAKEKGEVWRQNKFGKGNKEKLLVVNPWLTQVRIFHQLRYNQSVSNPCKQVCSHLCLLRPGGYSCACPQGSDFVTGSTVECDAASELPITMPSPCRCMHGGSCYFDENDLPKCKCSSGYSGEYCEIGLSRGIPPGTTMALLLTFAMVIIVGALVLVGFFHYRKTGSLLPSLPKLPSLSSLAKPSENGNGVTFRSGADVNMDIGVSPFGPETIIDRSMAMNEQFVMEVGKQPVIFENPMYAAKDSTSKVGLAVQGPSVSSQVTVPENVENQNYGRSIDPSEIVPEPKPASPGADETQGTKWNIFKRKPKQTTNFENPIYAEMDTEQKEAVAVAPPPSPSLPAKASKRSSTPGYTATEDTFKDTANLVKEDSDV

The compound `CO[C@H]1C[C@@H]2CC[C@@H](C)[C@@](O)(O2)C(=O)C(=O)N2CCCC[C@H]2C(=O)O[C@H]([C@H](C)C[C@@H]2CC[C@@H](O)[C@H](OC)C2)CC(=O)[C@H](C)/C=C(\C)[C@@H](O)[C@@H](OC)C(=O)[C@H](C)C[C@H](C)/C=C/C=C/C=C/1C` [Rapamycin] had a solubility in data set [1] of 5 to 20 µg/mL (≈ 5.47 to 21.9 µM).
In the case of “KMGGTNHPE-C: cortical collecting duct (CCD)-targeting peptide, SEQ ID NO: 53 (KMGGTNHPEC; listed as Homo sapiens)”, in data set [2], the Water solubility result was “Good”. Also, in data set [3], the Targeting location entry is “PCT and CCD”.
For “ELRGDRAKL-C: alternative CCD-targeting peptide, SEQ ID NO: 56 (ELRGDRAKLC; listed as Homo sapiens)”, the Water solubility entry in data set [2] was “Good”. Moreover, in data set [3], the Targeting location result is “CCD”.
Take `Cc1ccccc1C(=O)Nc1ccc(C(=O)N2CCCC(O)c3cc(Cl)ccc32)c(C)c1` (stereo not drawn) [tolvaptan]: the “clinical trial dropout rate” value in data set [4] was 23%.
For “45% PEG2000-(KKEEE)3K micelle (kidney-targeting peptide (KKEEE)3K with added N-terminal cysteine, conjugated to DSPE-PEG(2000)-maleimide)”, the Pearson's R value (colocalization) in data set [5] turned out to be 0.48.
The same measure, in the same setting: the same measure for “45% PEG2000-(EEKKK)3E micelle (peptide (EEKKK)3E with added N-terminal cysteine, conjugated to DSPE-PEG(2000)-maleimide)”: 0.53.
With “MGSHIEPGG-C: cortical collecting duct (CCD)-targeting peptide, SEQ ID NO: 52 (MGSHIEPGGC; listed as Homo sapiens)”, the Water solubility result in data set [2] is “Good”. The Targeting location result in data set [3] is “PCT and CCD”.
As for `CN(C)C(=N)N=C(N)N` [free met, metformin], in [6], the “patients with gastrointestinal (GI) discomfort” value is 25%. Moreover, the “patients with complete intolerance for the drug” value in [6] (listed as met) is on record as “approximately 5%”; in [6] (listed as metformin), 5%. Besides, the “serum components, electrolytes, and kidney health markers” value in data set [7] was “no significant difference between groups”. The compound also had an ENaC current in [8] of 79.2 μA/cm2. For the same compound, the “phosphorylated AMPK to total AMPK compared to CS-NP” value in data set [9] is reported as “significant increase”.
In the case of “CKDSPKSSKSIRFIPVST (listed as Homo sapiens)”, in [2], the Water solubility result is recorded as “Good”. Also, in data set [3], the Targeting location entry is on record as “Type A”.
With `CCN(CC)c1ccc2c(-c3ccccc3C(=O)O)c3ccc(=[N+](CC)CC)cc-3oc2c1.[Cl-]` [free R, Rhodamine B], the “changes in TER” value in data set [10] is given as “No changes in TER”. In addition, the intestinal localization entry in data set [11] is “localized to the duodenum and ileum”. In addition, the “% of total organ fluorescence accumulation in the intestines” value in [12] (3 h) came out at 45.8±14.0%; in data set [12] (24 h) it was 37.4±15.5%; in [12] (48 h) it was 38.5±15.1%. In data set [13], the “reduction in transport between the colchicine and wortmannin conditions” value is given as “No statistically significant reduction”. Further, in data set [14], the absolute bioavailability worked out at 47.9%.
Compound `CO[C@H]1C[C@@H]2CC[C@@H](C)[C@@](O)(O2)C(=O)C(=O)N2CCCC[C@H]2C(=O)O[C@H]([C@H](C)C[C@@H]2CC[C@@H](OCCO)[C@H](OC)C2)CC(=O)[C@H](C)/C=C(\C)[C@@H](O)[C@@H](OC)C(=O)[C@H](C)C[C@H](C)/C=C/C=C/C=C/1C` [Everolimus] had a solubility in data set [1] of under 100 µg/mL. In [15] (setting [16]), the “Encapsulation efficiency (%)” value is listed as 87.1 ± 2.0%, the “Loading capacity (wt/wt %)” value was 13.0 ± 0.3 wt/wt % and the “Moles drug per mole micelle” value came out at 0.1 ± 0.01. Besides, the “Size (nm)” value in data set [15] (drug-loaded micelles, lipid:drug 2:1) is listed as 21.0 ± 1.3 nm.
